Measured values as given in the supplement of paper PMC10307832.

Columns and labels:
Experiment in all cases: relative viability (nuclei count vs DMSO), 5 days (fraction); higher = more cells survive
Lestaurtinib + Lapatinib = compound: C[C@]12O[C@H](C[C@]1(O)CO)n1c3ccccc3c3c4c(c5c6ccccc6n2c5c31)CNC4=O [Lestaurtinib] + CS(=O)(=O)CCNCc1ccc(-c2ccc3ncnc(Nc4ccc(OCc5cccc(F)c5)c(Cl)c4)c3c2)o1 [Lapatinib] (partner 2 µM)
Procedure, shortened: (§1)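 Relative viability was taken as the ratio of nuclei in treated wells to nuclei in vehicle wells. Lung cancer cell lines in 1536-well plates received compounds by pin tool one day after seeding, either one drug alone or a fixed anchor-drug dose plus five library-drug doses (not always all listed) in √10 steps. Nuclei were counted on 4× images after 5 days of treatment, and values are medians of duplicate plates.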

[1] = compound: C[C@]12O[C@H](C[C@]1(O)CO)n1c3ccccc3c3c4c(c5c6ccccc6n2c5c31)CNC4=O [Lestaurtinib] + C[C@@H](Oc1cc(-c2cnn(C3CCNCC3)c2)cnc1N)c1c(Cl)ccc(F)c1Cl [Crizotinib] (partner 1 µM)
Procedure, shortened: as §1

Lestaurtinib + Foretinib = compound: C[C@]12O[C@H](C[C@]1(O)CO)n1c3ccccc3c3c4c(c5c6ccccc6n2c5c31)CNC4=O [Lestaurtinib] + COc1cc2c(Oc3ccc(NC(=O)C4(C(=O)Nc5ccc(F)cc5)CC4)cc3F)ccnc2cc1OCCCN1CCOCC1 [Foretinib] (partner 0.25 µM)
Procedure, shortened: as §1

TPCA-1 + Bortezomib = compound: C1=CC(=CC=C1C2=CC(=C(S2)NC(=O)N)C(=O)N)F [TPCA-1] + CC(C)C[C@H](NC(=O)[C@H](Cc1ccccc1)NC(=O)c1cnccn1)B(O)O [Bortezomib] (partner 0.002 µM)
Procedure, shortened: as §1

Row | Cell Line | relative viability (Lestaurtinib + Lapatinib; first compound 0.005 µM) | relative viability (Lestaurtinib + Lapatinib; first compound 0.01581 µM) | relative viability (Lestaurtinib + Lapatinib; first compound 0.05 µM) | relative viability (Lestaurtinib + Lapatinib; first compound 0.1581 µM) | relative viability (Lestaurtinib + Lapatinib; first compound 0.5 µM) | relative viability ([1]; first compound 0.005 µM) | relative viability ([1]; first compound 0.01581 µM) | relative viability ([1]; first compound 0.05 µM) | relative viability ([1]; first compound 0.1581 µM) | relative viability ([1]; first compound 0.5 µM) | relative viability (Lestaurtinib + Foretinib; first compound 0.005 µM) | relative viability (Lestaurtinib + Foretinib; first compound 0.01581 µM) | relative viability (Lestaurtinib + Foretinib; first compound 0.05 µM) | relative viability (Lestaurtinib + Foretinib; first compound 0.1581 µM) | relative viability (Lestaurtinib + Foretinib; first compound 0.5 µM) | relative viability (TPCA-1 + Bortezomib; first compound 0.04 µM) | relative viability (TPCA-1 + Bortezomib; first compound 0.1265 µM) | relative viability (TPCA-1 + Bortezomib; first compound 0.4 µM) | relative viability (TPCA-1 + Bortezomib; first compound 1.265 µM) | relative viability (TPCA-1 + Bortezomib; first compound 4 µM)
1 | NCI-H2170 | 0.267 | 0.248 | 0.273 | 0.238 | 0.201 | 1.05 | 1.06 | 0.68 | 0.924 | 0.292 | 0.969 | 1.02 | 0.907 | 0.962 | 0.358 | – | – | – | – | –
2 | A549 | 1.1 | 0.972 | 0.447 | 0.132 | 0.0697 | 0.77 | 0.771 | 0.227 | 0.183 | 0.0593 | 1.09 | 1.07 | 0.579 | 0.301 | 0.169 | – | – | – | – | –
3 | SW 1573 | 1.33 | 1.16 | 1.02 | 0.767 | 0.738 | 0.929 | 0.88 | 0.544 | 0.423 | 0.343 | 0.895 | 0.889 | 0.826 | 0.668 | 0.518 | 1.07 | 1.19 | 1.1 | 1.11 | 0.834
4 | NCI-H1975 | 0.902 | 0.812 | 0.475 | 0.422 | 0.155 | 0.943 | 0.988 | 0.707 | 0.867 | 0.586 | 1.09 | 0.99 | 0.927 | 0.731 | 0.538 | 0.327 | 0.417 | 0.321 | 0.437 | 0.26
5 | Calu-6 | 1.09 | 1.2 | 0.557 | 0.499 | 0.208 | 0.753 | 0.784 | 0.282 | 0.293 | 0.16 | 0.868 | 0.979 | 0.499 | 0.482 | 0.207 | 1.1 | 0.933 | 1.09 | 0.873 | 0.658
6 | NCI-H1623 | – | – | – | – | – | – | – | – | – | – | 0.872 | 0.812 | 0.818 | 0.671 | 0.695 | – | – | – | – | –
7 | NCI-H3122 | 1.07 | 1.05 | 1.02 | 0.98 | 0.414 | 0.321 | 0.286 | 0.322 | 0.33 | 0.273 | 1.06 | 0.984 | 1.01 | 1.03 | 0.793 | 1.09 | 0.983 | 1.08 | 1.01 | 0.975
8 | HCC-44 | 0.985 | 1.14 | 0.851 | 1.14 | 0.479 | 0.878 | 0.822 | 0.685 | 0.929 | 0.607 | – | – | – | – | – | 0.903 | 0.789 | 0.908 | 0.745 | 0.883
9 | NCI-H1944 | 0.924 | 0.733 | 0.691 | 0.58 | 0.571 | 1.13 | 1.28 | 0.745 | 0.695 | 0.362 | 0.909 | 0.848 | 0.698 | 0.652 | 0.366 | – | – | – | – | –
10 | NCI-H2342 | – | – | – | – | – | – | – | – | – | – | 1.17 | 1.06 | 1.08 | 1.08 | 0.922 | – | – | – | – | –
11 | NCI-H358 | 0.466 | 0.423 | 0.374 | 0.268 | 0.279 | 0.61 | 0.297 | 0.402 | 0.31 | 0.0912 | 0.621 | 0.436 | 0.358 | 0.201 | 0.108 | – | – | – | – | –
12 | LCLC-103H | – | – | – | – | – | 1.11 | 1.02 | 0.867 | 0.761 | 0.593 | 0.752 | 0.848 | 0.547 | 0.485 | 0.261 | 1.07 | 1.05 | 1.1 | 0.987 | 1.02
13 | NCI-H1792 | 0.779 | 1.05 | 0.56 | 0.653 | 0.244 | 0.901 | 1.18 | 0.49 | 0.799 | 0.476 | – | – | – | – | – | 0.97 | 0.924 | 0.84 | 0.964 | 0.559
14 | NCI-H1793 | 0.927 | 0.907 | 0.467 | 0.441 | 0.235 | – | – | – | – | – | 0.684 | 0.702 | 0.436 | 0.574 | 0.39 | – | – | – | – | –
15 | SW 900 | – | – | – | – | – | – | – | – | – | – | 0.719 | 0.891 | 1.17 | 0.868 | 0.793 | – | – | – | – | –
16 | SK-MES-1 | 0.529 | 0.453 | 0.374 | 0.324 | 0.285 | 1.02 | 0.964 | 0.92 | 0.505 | 0.281 | 0.906 | 0.866 | 0.599 | 0.33 | 0.334 | – | – | – | – | –
17 | LK-2 | 0.89 | 1.07 | 0.64 | 0.496 | 0.283 | 0.241 | 0.264 | 0.267 | 0.188 | 0.188 | 1.16 | 1.19 | 0.683 | 0.774 | 0.309 | – | – | – | – | –
18 | NCI-H1395 | 1.15 | 1.26 | 0.848 | 0.853 | 0.416 | – | – | – | – | – | 1.01 | 0.911 | 0.861 | 0.824 | 0.479 | – | – | – | – | –
19 | NCI-H441 | – | – | – | – | – | 0.912 | 0.654 | 0.395 | 0.505 | 0.308 | 1.07 | 1.02 | 0.795 | 0.933 | 0.277 | 0.63 | 0.32 | 0.42 | 0.266 | 0.404
